Consider 24 compounds from patent publication US8552002B2 (Novartis AG, priority 2004, dated 2013).

Format in all cases: biochemical
The target in one experiment is T1, KDR (Homo sapiens, UniProt P35968).
T1 construct: expressed in transfected cells; host or cells: CHO cells
The experiment in a line: Inhibitory activity against KDR (VEGF-R2), in vitro data of Examples 170 and 207. Conditions: 10 μM; Examples 1 to 169; read-out: KDR inhibition at 10 μM. Put shortly: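 KDR tyrosine phosphorylation detected by luminescence after overnight 4° C capture of 20 μg lysate protein with PY20:AP antibody. Lysates came from cells given compound for 2 h at 37° C, then final 20 ng/ml VEGF for 5 min; compound-free medium as control.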

In the next experiment the target is T2, Tek (Homo sapiens, UniProt Q02763).
T2 construct: amino acids 773-1124 of the cytoplasmic kinase domain of human Tek, N-terminally fused to GST; made in house; host or cells: Sf9 insect cells (baculovirus)
T2 sequence (Q02763 773-1124): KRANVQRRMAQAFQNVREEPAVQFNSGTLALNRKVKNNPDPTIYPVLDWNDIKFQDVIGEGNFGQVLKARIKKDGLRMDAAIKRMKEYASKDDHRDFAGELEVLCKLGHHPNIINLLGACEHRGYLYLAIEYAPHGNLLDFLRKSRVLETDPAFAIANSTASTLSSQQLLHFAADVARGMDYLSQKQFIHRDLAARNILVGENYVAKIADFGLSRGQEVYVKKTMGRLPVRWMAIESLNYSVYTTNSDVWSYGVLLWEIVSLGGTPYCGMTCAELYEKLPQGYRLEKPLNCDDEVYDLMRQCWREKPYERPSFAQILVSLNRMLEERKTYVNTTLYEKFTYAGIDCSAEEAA
Nature of the experiment: Recombinant GST-Tek (Tie-2) tyrosine kinase assay (33P into poly(Glu,Tyr)). Conditions: Examples 1 to 169. Put shortly: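 GST-fused human Tek kinase domain (aa 773-1124), baculovirus-expressed, 150 ng per reaction; 10 μg/mL poly(Glu,Tyr) 4:1, 4.0 μM [γ-33P]ATP, 3 mM MnCl2/3 mM MgCl2, pH 7.5, 30 min at ambient temperature. 33P uptake read on PVDF filters; IC50 by linear regression from four concentrations in duplicate.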

The next experiment has as its target T3, FGFR3 (K650E) (Homo sapiens, UniProt P22607, K650E).
T3 construct: amino acids 411-806 of the cytoplasmic domain of human FGFR-3, N-terminally fused to GST; made in house; host or cells: Sf9 insect cells (baculovirus)
The experiment in a line: Recombinant GST-FGFR-3-K650E tyrosine kinase assay (33P into poly(Glu,Tyr)). Conditions: 10 μM; Examples 1 to 169; read-out: FGFR3 (K650E) inhibition at 10 μM.

T3 sequence (P22607 411-806 K650E): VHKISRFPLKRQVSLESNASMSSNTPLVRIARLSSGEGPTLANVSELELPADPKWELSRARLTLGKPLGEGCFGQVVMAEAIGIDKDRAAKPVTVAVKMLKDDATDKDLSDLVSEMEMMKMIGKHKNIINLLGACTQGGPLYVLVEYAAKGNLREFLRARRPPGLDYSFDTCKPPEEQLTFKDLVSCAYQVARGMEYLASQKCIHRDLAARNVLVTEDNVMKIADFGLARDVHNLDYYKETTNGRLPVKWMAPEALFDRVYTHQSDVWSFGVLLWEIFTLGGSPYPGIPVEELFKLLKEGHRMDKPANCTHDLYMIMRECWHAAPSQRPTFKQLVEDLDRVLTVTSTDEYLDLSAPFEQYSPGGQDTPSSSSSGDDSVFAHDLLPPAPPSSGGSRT
T1 sequence (P35968 20-1356): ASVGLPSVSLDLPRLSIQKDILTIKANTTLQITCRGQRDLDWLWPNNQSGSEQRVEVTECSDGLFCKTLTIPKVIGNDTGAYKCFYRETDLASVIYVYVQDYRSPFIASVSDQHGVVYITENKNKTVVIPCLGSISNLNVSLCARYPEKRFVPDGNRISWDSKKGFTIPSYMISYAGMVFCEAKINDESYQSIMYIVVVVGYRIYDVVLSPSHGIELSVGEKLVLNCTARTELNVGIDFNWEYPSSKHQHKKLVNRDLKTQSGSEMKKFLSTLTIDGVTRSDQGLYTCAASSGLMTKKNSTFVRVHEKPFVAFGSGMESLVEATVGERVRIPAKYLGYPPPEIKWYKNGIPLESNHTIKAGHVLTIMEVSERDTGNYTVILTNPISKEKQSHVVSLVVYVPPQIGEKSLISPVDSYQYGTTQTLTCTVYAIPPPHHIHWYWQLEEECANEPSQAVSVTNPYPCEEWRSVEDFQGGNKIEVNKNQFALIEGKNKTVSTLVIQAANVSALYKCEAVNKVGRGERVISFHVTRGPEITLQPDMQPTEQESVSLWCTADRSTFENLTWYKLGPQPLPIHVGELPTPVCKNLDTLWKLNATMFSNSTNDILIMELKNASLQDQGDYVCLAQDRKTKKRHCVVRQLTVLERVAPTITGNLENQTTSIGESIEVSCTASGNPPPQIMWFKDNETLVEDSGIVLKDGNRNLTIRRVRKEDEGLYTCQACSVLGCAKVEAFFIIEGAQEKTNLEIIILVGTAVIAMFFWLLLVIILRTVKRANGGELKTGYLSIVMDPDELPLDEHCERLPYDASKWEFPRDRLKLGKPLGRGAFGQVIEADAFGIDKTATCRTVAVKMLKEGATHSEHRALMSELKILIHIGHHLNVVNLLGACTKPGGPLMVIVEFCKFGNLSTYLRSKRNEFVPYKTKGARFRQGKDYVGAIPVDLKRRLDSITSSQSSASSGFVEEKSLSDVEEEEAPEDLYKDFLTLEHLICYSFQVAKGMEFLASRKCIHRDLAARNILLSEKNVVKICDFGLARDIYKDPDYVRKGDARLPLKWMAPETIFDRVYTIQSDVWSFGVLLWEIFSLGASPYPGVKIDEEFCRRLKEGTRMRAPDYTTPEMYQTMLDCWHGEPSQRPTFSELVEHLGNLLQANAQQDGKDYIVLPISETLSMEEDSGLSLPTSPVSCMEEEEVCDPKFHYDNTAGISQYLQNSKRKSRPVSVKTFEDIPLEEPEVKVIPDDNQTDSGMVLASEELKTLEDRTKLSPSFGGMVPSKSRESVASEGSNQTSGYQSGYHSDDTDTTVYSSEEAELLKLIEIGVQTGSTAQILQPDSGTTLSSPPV

By inhibition is commonly meant the drop in the measured response relative to a control, in per cent. As to `CN(C(=O)Nc1c(Cl)cccc1Cl)c1cc(Nc2cccc(C#N)c2)ncn1` [Example 114, 1-[6-(3-Cyano-phenylamino)-pyrimidin-4-yl]-3-(2,6-dichloro-phenyl)-1-methyl-urea], the figures for the inhibition at 10 µM at KDR, at Tek and on FGFR3 (K650E) were 67 to 100%, 12 to 100% and 27 to 100%, respectively.
Consider `O=C(Nc1cc(Nc2ccc(N3CCOCC3)cc2)ncn1)Nc1c(Cl)cccc1Cl` [Example 108, 1-(2,6-Dichloro-Phenyl)-3-[6-(4-morpholin-4-yl-phenylamino)-pyrimidin-4-yl]-urea], for which the inhibition at 10 µM on KDR was 67 to 100%; on Tek, 12 to 100%; on FGFR3 (K650E), 27 to 100%.
`CCN(C(=O)Nc1c(Cl)c(OC)cc(OC)c1Cl)c1cc(Nc2ccc(C(=O)N3CCN(C)CC3)cc2)ncn1` [Example 64, 3-(2,6-Dichloro-3,5-dimethoxy-phenyl)-1-ethyl-1-{6-[4-(4-methyl-piperazine-1-carbonyl)-phenylamino]-pyrimidin-4-yl}-urea]: the inhibition at 10 µM is 67 to 100% on KDR, 12 to 100% on Tek and 27 to 100% on FGFR3 (K650E).
As to `COc1ccc(NC(=O)Nc2cc(Nc3ccc(N4CCN(C)CC4)cc3)ncn2)c(OC)c1` [Example 16, 1-(2,4-Dimethoxy-phenyl)-3-{6-[4-(4-methyl-piperazin-1-yl)-phenyl-amino]-pyrimidin-4-yl}-urea], the inhibition at 10 µM on KDR was 67 to 100%; at Tek, 12 to 100%; on FGFR3 (K650E) it was 27 to 100%.
With `CCN(CC)CCCOc1ccc(Nc2cc(NC(=O)Nc3ccccc3Br)ncn2)cc1` [Example 104, 1-(2-Bromo-phenyl)-3-{6-[4-(3-diethylamino-propoxy)-phenylamino]-pyrimidin-4-yl}-urea], the results for the inhibition at 10 µM at KDR, on Tek and at FGFR3 (K650E) were 67 to 100%, 12 to 100% and 27 to 100%, respectively.
Regarding `Cc1cccc(C)c1NC(=O)Nc1cc(Nc2cccc(Cl)c2)ncn1` [Example 140, 1-[6-(3-Chloro-phenylamino)-pyrimidin-4-yl]-3-(2,6-dimethyl-phenyl)-urea], the results for the inhibition at 10 µM at KDR, on Tek and on FGFR3 (K650E) were 67 to 100%, 12 to 100% and 27 to 100%, respectively.
The corresponding values for `COc1cc(OC)c(Cl)c(NC(=O)Nc2cc(Nc3cccc(CN(C)C)c3)ncn2)c1Cl` [Example 157, 1-(2,6-Dichloro-3,5-dimethoxy-phenyl)-3-[6-(3-dimethylaminomethyl-phenylamino)-pyrimidin-4-yl]-urea] are 67 to 100%, 12 to 100% and 27 to 100%.
Regarding `CCN(C(=O)Nc1c(Cl)c(OC)cc(OC)c1Cl)c1cc(Nc2ccc(OCCN3CCCC3)cc2)ncn1` [Example 156, 3-(2,6-Dichloro-3,5-dimethoxy-phenyl)-1-ethyl-1-{6-[4-(2-pyrrolidin-1-yl-ethoxy)-phenylamino]-pyrimidin-4-yl}-urea], the values for the inhibition at 10 µM on KDR, at Tek and at FGFR3 (K650E) were 67 to 100%, 12 to 100% and 27 to 100%, respectively.
The corresponding values for `O=C(Nc1ccccc1)Nc1cc(Nc2cccc(Cl)c2)ncn1` [Example 141, 1-[6-(3-Chloro-phenylamino)-pyrimidin-4-yl]-3-phenyl-urea] are 67 to 100%, 12 to 100% and 27 to 100%.
In the case of `CCN(CC)c1ccc(Nc2cc(N(C)C(=O)Nc3c(Cl)cccc3Cl)ncn2)cc1` [Example 110, 3-(2,6-Dichloro-phenyl)-1-[6-(4-diethylamino-phenylamino)-pyrimidin-4-yl]-1-methyl-urea], the inhibition at 10 µM fell in the range of 67 to 100% on KDR, 12 to 100% at Tek and 27 to 100% on FGFR3 (K650E).
As for `CCN1CCN(Cc2ccc(Nc3cc(NC(=O)Nc4c(Cl)c(OC)cc(OC)c4Cl)ncn3)cc2C(F)(F)F)CC1` [Example 168, 1-(2,6-Dichloro-3,5-dimethoxy-phenyl)-3-{6-[4-(4-ethyl-piperazin-1-ylmethyl)-3-trifluoromethyl-phenylamino]-pyrimidin-4-yl}-urea], the inhibition at 10 µM lay in the range of 67 to 100% at KDR, 12 to 100% on Tek and 27 to 100% on FGFR3 (K650E).
For `COc1cc(OC)c(Cl)c(NC(=O)N(C)c2cc(Nc3ccc(C(F)(F)F)nc3)ncn2)c1Cl` [Example 154, 3-(2,6-Dichloro-3,5-dimethoxy-phenyl)-1-methyl-1-[6-(6-trifluoromethyl-pyridin-3-ylamino)-pyrimidin-4-yl]-urea], in that order: 67 to 100%, 12 to 100% and 27 to 100%.
Consider `COc1ccc(NC(=O)Nc2cc(Nc3cccc(N4CCN(C)CC4)c3)ncn2)c(OC)c1` [Example 17, 1-(2,4-Dimethoxy-phenyl)-3-{6-[3-(4-methyl-piperazin-1-yl)-phenyl-amino]-pyrimidin-4-yl}-urea], for which the inhibition at 10 µM at KDR fell in the range of 67 to 100%; at Tek it was 12 to 100%; on FGFR3 (K650E), 27 to 100%.
Regarding `COc1ccc(C)c(NC(=O)Nc2cc(Nc3cccc(Cl)c3)ncn2)c1` [Example 134, 1-[6-(3-Chloro-phenylamino)-pyrimidin-4-yl]-3-(5-methoxy-2-methyl-phenyl)-urea], the inhibition at 10 µM lay in the range of 67 to 100% on KDR, 12 to 100% on Tek and 27 to 100% at FGFR3 (K650E).
Take `CCN(C(=O)Nc1c(Cl)c(OC)cc(OC)c1Cl)c1cc(Nc2ccc(OC3CCN(C)CC3)cc2)ncn1` [Example 166, 3-(2,6-Dichloro-3,5-dimethoxy-phenyl)-1-ethyl-{6-[4-(1-methyl-piperidin-4-yloxy)-phenylamino]-pyrimidin-4-yl}-urea]: the inhibition at 10 µM lay in the range of 67 to 100% on KDR, 12 to 100% on Tek and 27 to 100% on FGFR3 (K650E).
For `COc1cc(OC)c(Cl)c(NC(=O)N(C)c2cc(Nc3ccc(N4CCN(C(C)C)CC4)cc3)ncn2)c1Cl` [Example 163, 3-(2,6-Dichloro-3,5-dimethoxy-phenyl)-1-{6-[4-(4-isopropyl-piperazin-1-yl)-phenylamino]-pyrimidin-4-yl}-1-methyl-urea], the inhibition at 10 µM was in the range of 67 to 100% at KDR, 12 to 100% on Tek and 27 to 100% on FGFR3 (K650E).
Take `Cc1cc(C)cc(NC(=O)Nc2cc(Nc3ccc(N4CCN(C)CC4)cc3)ncn2)c1` [Example 22, 1-(3,5-Dimethyl-phenyl)-3-{6-[4-(4-methyl-piperazin-1-yl)-phenyl-amino]-pyrimidin-4-yl}-urea]: the inhibition at 10 µM on KDR was in the range of 67 to 100%; at Tek it was 12 to 100%; on FGFR3 (K650E), 27 to 100%.
As for `COc1cc(NC(=O)Nc2cc(Nc3cccc(OCCN4CCOCC4)c3)ncn2)c(Cl)c(OC)c1` [Example 45, 1-(2-Chloro-3,5-dimethoxy-phenyl)-3-{6-[3-(2-morpholin-4-yl-ethoxy)-phenylamino]-pyrimidin-4-yl}-urea], the inhibition at 10 µM was 67 to 100% at KDR, 12 to 100% at Tek and 27 to 100% at FGFR3 (K650E).
The corresponding values for `CN1CCN(c2cccc(Nc3cc(NC(=O)Nc4cc(Cl)cc(Cl)c4)ncn3)c2)CC1` [Example 11, 1-(3,5-Dichloro-phenyl)-3-{6-[3-(4-methyl-piperazin-1-yl)-phenylamino]-pyrimidin-4-yl}-urea] are 67 to 100%, 12 to 100% and 27 to 100%.
Take `CN(C(=O)Nc1c(Cl)cccc1Cl)c1cc(Nc2ccc(F)cc2)ncn1` [Example 123, 3-(2,6-Dichloro-phenyl)-1-[6-(4-fluoro-phenylamino)-pyrimidin-4-yl]-1-methyl-urea]: the inhibition at 10 µM at KDR lay in the range of 67 to 100%; at Tek, 12 to 100%; on FGFR3 (K650E) it was 27 to 100%.
Turning to `O=C(Nc1cc(Nc2cccc(Cl)c2)ncn1)Nc1c(Cl)cccc1Cl` [Example 137, 1-[6-(3-Chloro-phenylamino)-pyrimidin-4-yl]-3-(2,6-dichloro-Phenyl)-urea], the inhibition at 10 µM at KDR lay in the range of 67 to 100%; at Tek it was 12 to 100%; on FGFR3 (K650E) it was 27 to 100%.
For `COc1cc(OC)c(Cl)c(NC(=O)N(C)c2cc(Nc3ccc(OC4CCN(C)CC4)cc3)ncn2)c1Cl` [Example 165, 3-(2,6-Dichloro-3,5-dimethoxy-phenyl)-1-methyl-{6-[4-(1-methyl-piperidin-4-yloxy)-phenylamino]-pyrimidin-4-yl}-urea], the inhibition at 10 µM was in the range of 67 to 100% at KDR, 12 to 100% on Tek and 27 to 100% at FGFR3 (K650E).
The corresponding values for `COc1cccc(NC(=O)Nc2cc(Nc3ccc(N4CCN(C)CC4)cc3)ncn2)c1` [Example 8, 1-(3-Methoxy-phenyl)-3-{6-[4-(4-methyl-piperazin-1-yl)-phenylamino]-py-rimidin-4-yl}-urea] are 67 to 100%, 12 to 100% and 27 to 100%.
The corresponding values for `COc1ccc(Nc2cc(NC(=O)Nc3c(Cl)cccc3Cl)ncn2)cn1` [Example 112, 1-(2,6-Dichloro-phenyl)-3-[6-(6-methoxy-pyridin-3-ylamino)-pyrimidin-4-yl]-urea] are 67 to 100%, 12 to 100% and 27 to 100%.
